Test results published in patent US9951043B2, “Therapeutic compounds” (Gilead Sciences, Inc., priority 2013, dated 2018).
Where two headings read alike, the source gives them in different places.

Experiments:
uninfected MT-4 cells = test: Test B: Cytotoxicity Assay; assay type: cell-based
Procedure: (§1) MT-4 cells were next mixed with HIV-IIIb at an m.o.i of 0.003 for 1 hour, after which time 35 μL of virus/cell mixture (2000 cells) was immediately added to each well containing 40 μL of diluted compound. The plates were then incubated at 37° C. for 5 days. […] Cell lysis was carried out by incubating at room temperature for 10 min and then chemiluminescence was read.
Test B: Cytotoxicity Assay
Compound cytotoxicity and the corresponding CC50 values was determined using the same protocol as described in the antiviral assay (Test A) except that uninfected cells were used.

HIV-IIIb = test: Test A: Antiviral Assay in MT4 Cells; assay type: cell-based, HIV-1; conditions: for % inhibition at 0.2 μM (percent inhibition of virus-induced cell killing): 0.2 μM drug concentration; for % inhibition at 0.2 μM (percent inhibition of virus-induced cell killing) / % inhibition at 2 μM (percent inhibition of virus-induced cell killing): MT-4 cells infected with HIV-IIIb, 5 days, calculated from the dose response curve, values above 100 normalized to 100%; for % inhibition at 2 μM (percent inhibition of virus-induced cell killing): 2 μM drug concentration; for inhibition at 0.2 µM / inhibition at 2 µM: Human immunodeficiency virus 1, IIIB, comparison with previously published compounds (WO 2013/006738); for inhibition at 0.2 µM: MT4, read-out: Response at 0.2 μM (percent inhibition of virus-induced cell killing), 0.2 μM; for inhibition at 2 µM: MT4, read-out: Response at 2 μM (percent inhibition of virus-induced cell killing), 2 μM
Procedure: Test A: Antiviral Assay in MT4 Cells
as §1
The data above represent an average over time of each assay for each compound. […] Thus, the data reported in the tables include the data reported in the priority document, as well as data from assays run in the intervening period.

[1] = uninfected MT-4 cells, same protocol as Test A, 5 days, read-out: CC50

| Compound | CC50 (uninfected MT-4 cells) | % inhibition at 0.2 μM (percent inhibition of virus-induced cell killing) (HIV-IIIb) | % inhibition at 2 μM (percent inhibition of virus-induced cell killing) (HIV-IIIb) | CC50 (uninfected MT-4 cells; [1]) | inhibition at 0.2 µM (HIV-IIIb) | inhibition at 2 µM (HIV-IIIb) |
| --- | --- | --- | --- | --- | --- | --- |
| C#Cc1ccc(-c2ccc(Cl)c3cnn(C)c23)c([C@H](Cc2cc(F)cc(F)c2)NC(=O)Cn2nc(C(F)F)c3c2C(F)(F)[C@@H]2C[C@H]32)n1 [Compound 136D, N—((S)-1-(3-(4-chloro-1-methyl-1H-indazol-7-yl)-6-ethynylpyridin-2-yl)-2-(3,5-difluorophenyl)ethyl)-2-((3bS,4aR)-3-(difluoromethyl)-55-difluoro-3b,4,4a,5-tetrahydro-1H-cyclopropa[3,4]cyclopenta[1,2-c]pyrazol-1-yl)acetamide] | 7.43 µM | – | – | – | – | – |
| CCNc1nn(C)c2c(-c3ccc(C#CC(C)(C)O)nc3[C@H](Cc3cc(F)cc(F)c3)NC(=O)Cn3nc(C(F)F)c4c3C(F)(F)[C@@H]3C[C@H]43)ccc(Cl)c12 [Compound 91E] | 9.38 µM | 100% | 100% | – | – | – |
| CC(C)(O)C#Cc1ccc(-c2ccc3nnc(N)n3c2)c([C@H](Cc2cc(F)cc(F)c2)NC(=O)Cn2nc(C(F)F)c3c2C(F)(F)[C@@H]2C[C@H]32)n1 [Compound 105E] | 31.5 µM | – | 74% | – | – | – |
| Cn1nc(NS(C)(=O)=O)c2c(Cl)ccc(-c3ccc(C#CC(C)(C)O)nc3[C@H](Cc3cc(F)cc(F)c3)NC(=O)Cn3nc(Cl)c4c3C(F)(F)[C@@H]3C[C@H]43)c21 [Compound 149, N—((S)-1-(3-(4-chloro-1-methyl-3-(methylsulfonamido)-1H-indazol-7-yl)-6-(3-hydroxy-3-methylbut-1-yn-1-yl)pyridin-2-yl)-2-(3,5-difluorophenyl)ethyl)-2-((3bS,4aR)-3-chloro-5,5-difluoro-3b,4,4a,5-tetrahydro-1H-cyclopropa[3,4]cyclopenta[1,2-c]pyrazol-1-yl)acetamide] | – | – | – | 26.7 µM | – | – |
| COc1ccc(-c2ccc(C#CC(C)(C)O)nc2[C@H](Cc2cc(F)cc(F)c2)NC(=O)Cn2nc(C(F)F)c3c2C(F)(F)[C@@H]2C[C@H]32)c2c1c(N)nn2C [Compound 114G] | 14.8 µM | 100% | 100% | – | – | – |
| Cn1nc(NS(C)(=O)=O)c2c(Cl)ccc(-c3ccc(C#CC(C)(C)N)nc3[C@H](Cc3cc(F)cc(F)c3)NC(=O)Cn3nc(C(F)F)c4c3C(F)(F)[C@@H]3C[C@H]43)c21 [Compound 127, N—((S)-1-(6-(3-amino-3-methylbut-1-yn-1-yl)-3-(4-chloro-1-methyl-3-(methylsulfonamido)-1H-indazol-7-yl)pyridin-2-yl)-2-(3,5-difluorophenyl)ethyl)-2-((3bS,4aR)-3-(difluoromethyl)-5,5-difluoro-3b,4,4a,5-tetrahydro-1H-cyclopropa[3,4]cyclopenta[1,2-c]pyrazol-1-yl)acetamide] | – | – | – | 8.76 µM | – | – |
| NC(=O)c1cc(-c2ccc(-c3ccc(F)c(C(N)=O)c3)c([C@H](Cc3cc(F)cc(F)c3)NC(=O)Cn3nc(C(F)F)c4c3C(F)(F)CCC4(F)F)n2)ccc1F | – | – | – | – | 3% | 58% |
| CC(C)(O)C#Cc1ccc(-c2ccc(Cl)n3c(N)nnc23)c([C@H](Cc2cc(F)cc(F)c2)NC(=O)Cn2nc(C(F)F)c3c2C(F)(F)[C@@H]2C[C@H]32)n1 [Compound 106E] | 12.4 µM | 95% | 96% | – | – | – |
| CC(C)(O)C#Cc1ccc(-c2ccc(F)c(C(N)=O)c2)c([C@H](Cc2cc(F)cc(F)c2)NC(=O)Cn2nc(C(F)F)c3c2C(F)(F)CCC3(F)F)n1 | – | – | – | – | 71% | 84% |
| Cn1nc(NS(=O)(=O)C(F)(F)F)c2c(Cl)ccc(-c3ccc(C#CC(C)(C)O)nc3[C@H](Cc3cc(F)cc(F)c3)NC(=O)Cn3nc(C(F)F)c4c3C(F)(F)[C@@H]3C[C@H]43)c21 [Compound 171D] | > 42.5 µM | – | – | – | – | – |
| CC(C)(O)C#Cc1ccc(-c2ccc(Cl)n3c(NS(C)(=O)=O)nnc23)c([C@H](Cc2cc(F)cc(F)c2)NC(=O)Cn2nc(C(F)F)c3c2C(F)(F)[C@@H]2C[C@H]32)n1 [Compound 110E] | > 53.2 µM | 15% | 98% | – | – | – |
| CC(C)(O)C#Cc1ccc(-c2cccc3c2CNC3=O)c([C@H](Cc2cc(F)cc(F)c2)NC(=O)Cn2nc(C(F)(F)F)c3c2C(F)(F)[C@@H]2C[C@H]32)n1 [Compound 15, 2-((3bS,4aR)-5,5-difluoro-3-(trifluoromethyl)-3b,4,4a,5-tetrahydro-1H-cyclopropa[3,4]cyclopenta[1,2-c]pyrazol-1-yl)-N—((S)-2-(3,5-difluorophenyl)-1-(6-(3-hydroxy-3-methylbut-1-yn-1-yl)-3-(1-oxoisoindolin-4-yl)pyridin-2-yl)ethyl)acetamide] | – | 93% | 94% | 10.3 µM | – | – |
| Cn1nc(NS(C)(=O)=O)c2c(Cl)ccc(-c3ccc(C#CC(C)(C)O)nc3[C@H](Cc3cccc(F)c3)NC(=O)Cn3nc(C(F)(F)F)c4c3C(F)(F)[C@@H]3C[C@H]43)c21 [Compound 187G, N—((S)-1-(3-(4-chloro-1-methyl-3-(methylsulfonamido)-1H-indazol-7-yl)-6-(3-hydroxy-3-methylbut-1-yn-1-yl)pyridin-2-yl)-2-(3-fluorophenyl)ethyl)-2-((3b,4aR)-5,5-difluoro-3-(trifluoromethyl)-3b,4,4a,5-tetrahydro-1H-cyclopropa[3,4]cyclopenta[1,2-c]pyrazol-1-yl)acetamide] | 19.8 µM | 84% | 84% | – | – | – |
| N—((S)-1-(3-(3-chloro-1H-benzofuro[3,2-c]pyrazol-5-yl)-6-(3-hydroxy-3-methylbut-1-yn-1-yl)pyridin-2-yl)-2-(3,5-difluorophenyl)-2-((3bS,4aR)-5,5-difluoro-3-(trifluoromethyl)-3b,4,4a,5-tetrahydro-1H-cyclopropa[3,4]cyclopenta[1,2-c]pyrazol-1-yl)acetamide [Compound 113D] | 1.09 µM | – | 97% | – | – | – |
| Cn1nc(NS(C)(=O)=O)c2c(Cl)ccc(-c3ccc(C#CC(C)(C)O)nc3[C@H](Cc3cc(F)cc(F)c3)NC(=O)Cn3ncc4c3C(F)(F)[C@@H]3C[C@H]43)c21 [Compound 150, N—((S)-1-(3-(4-chloro-1-methyl-3-(methylsulfonamido)-1H-indazol-7-yl)-6-(3-hydroxy-3-methylbut-1-yn-1-yl)pyridin-2-yl)-2-(3,5-difluorophenyl)ethyl)-2-((3bS,4aR)-5,5-difluoro-3b,4,4a,5-tetrahydro-1H-cyclopropa[3,4]cyclopenta[1,2-c]pyrazol-1-yl)acetamide] | – | – | – | 28.9 µM | – | – |
| Cc1nc(NS(C)(=O)=O)c2cccc(-c3ccc(C#CC(C)(C)O)nc3[C@H](Cc3cc(F)cc(F)c3)NC(=O)Cn3nc(C(F)F)c4c3C(F)(F)[C@@H]3C[C@H]43)n12 [Compound 120H, 2-((3bS,4aR)-3-(difluoromethyl)-5,5-difluoro-3b,4,4a,5-tetrahydro-1H-cyclopropa[3,4]cyclopenta[1,2-c]pyrazol-1-yl)-N—((S)-2-(3,5-difluorophenyl)-1-(6-(3-hydroxy-3-methylbut-1-yn-1-yl)-3-(3-methyl-1-(methylsulfonamido)imidazo[1,5-a]pyridin-5-yl)pyridin-2-yl)ethyl)acetamide] | – | – | – | 11.7 µM | – | – |
| CC(C)(O)C#Cc1ccc(-c2ccc(F)c(C(N)=O)c2)c([C@H](Cc2cc(F)cc(F)c2)NC(=O)Cn2nc(C(F)(F)F)c3c2C(F)(F)[C@@H]2C[C@H]32)n1 | – | – | – | – | 96% | 90% |
| Cn1nc(NS(C)(=O)=O)c2c(Cl)ccc(-c3ccc(C#CC(C)(C)O)nc3[C@H](Cc3cc(F)cc(F)c3)NC(=O)Cn3nc(N)c4c3C(F)(F)[C@@H]3C[C@H]43)c21 [Compound 148B, 2-((3bS,4aR)-3-amino-5,5-difluoro-3b,4,4a,5-tetrahydro-H-cyclopropa[3,4]cyclopenta[1,2-c]pyrazol-1-yl)-N—((S)-1-(3-(4-chloro-1-methyl-3-(methylsulfonamido)-1H-indazol-7-yl)-6-(3-hydroxy-3-methylbut-1-yn-1-yl)pyridin-2-yl)-2-(3,5-difluorophenyl)ethyl)acetamide] | 23.3 µM | 83% | 83% | – | – | – |
| Cn1nc(N)c2c(Cl)ccc(-c3ccc(C#CC(C)(C)O)nc3[C@H](Cc3cc(F)cc(F)c3)NC(=O)Cn3nc(C(F)(F)F)c4c3C(F)(F)[C@@H]3C[C@H]43)c21 [Compound 55C] | 9.56 µM | 92% | 92% | – | – | – |
| Cn1nc(N)c2c(C#N)ccc(-c3ccc(C#CC(C)(C)O)nc3[C@H](Cc3cc(F)cc(F)c3)NC(=O)Cn3nc(C(F)F)c4c3C(F)(F)[C@@H]3C[C@H]43)c21 [Compound 77E] | 11.8 µM | 96% | 97% | – | – | – |
